According to US5661154A (priority 1988, dated 1997):
“Also recorded” adds a separate entry of the source. Where two headings read alike, the source gives them in different places.

How the values were obtained:
serum uric acid = assay: Uric acid decreasing effect in test persons with hyperuricaemia; type: in vivo; details: for decrease of the serum uric acid level: daily 384 mg sodium oxypurinol or 300 mg allopurinol, two weeks; for decrease of the serum uric acid level (in words): sodium oxypurinol compared with allopurinol
xanthine oxidase = details: cited from earlier work; for inhibiting the enzyme xanthine oxidase: allopurinol and oxypurinol compared with each other
[1] = portion of allopurinol; cited from earlier work
[2] = cited from earlier work
[3] = pH value of aqueous solution; type: physicochemical; details: 5% aqueous solution
Excerpt: However, from the examples it can be seen that not the pure sodium salt was used, but a mixture of salt and excess sodium hydroxide solution. This follows especially from the pH values of about 1 to 2% solutions, being 11.5 or 12.0. The sodium salt having been prepared by the applicant in pure and crystalline form for the first time has a pH value of 9.7 in 5% aqueous solution, and crystallizes as the monohydrate.
(§1) Said sodium salt is monosodium oxypurinol monohydrate. The salt is white and crystallizes in fine needles.

Solubility = type: physicochemical; details: methanol/water 3:1, organic solvent or mixture; 25° C.; read-out: solubility in methanol/water (3:1 by vol.)
Excerpt: as §1

[4] = Stability of the salt on air and on drying; type: physicochemical
Procedure: The salt is stable on air and endures drying temperatures up to about 70° C.

| pH value [3] | solubility (Solubility) [µg/mL] | endures drying temperatures up to ([4]; drying) | stability on air ([4]; on air) | Compound | decrease of the serum uric acid level (serum uric acid) [mg/100 ml] | decrease of the serum uric acid level (in words) (serum uric acid) | inhibiting the enzyme xanthine oxidase (xanthine oxidase) | activity of allopurinol itself (xanthine oxidase; therapeutic effect only after metabolizing to oxypurinol) | excreted via kidneys [1] [%] | resorbable upon peroral application ([2]; in vivo) | resorbable upon peroral application ([2]; from galenic formulations, per os) | decrease of the serum uric acid level (in words) (serum uric acid; monohydrate) |
| --- | --- | --- | --- | --- | --- | --- | --- | --- | --- | --- | --- | --- |
|  |  |  |  | Oc1ncnc2[nH]ncc12 [allopurinol] | 2.0 | comparable; also recorded: approximately equal decrease | equally strongly | little activity itself | 3 to 10 | well resorbable |  |  |
|  |  |  |  | Oc1nc(O)c2cn[nH]c2n1 [oxypurinol, 4,6-dihydroxypyrazolo[3,4-d]pyrimidine] |  |  | equally strongly |  |  |  | no success was achieved in finding a galenic formulation being sufficiently resorbable per os |  |
| 9.7 | ~2000 | about 70 °C | stable on air | Oc1nc(O)c2cn[nH]c2n1 [sodium oxypurinol, monosodium oxypurinol monohydrate] | 2.1 |  |  |  |  |  |  | comparable; also recorded: approximately equal decrease |
